One block for each compound: values may come before it.
System: 596521-263-R-J1-PDC complex spheroids, viability % of control
Assay: Anticancer human tumor 596521-263-R-J1-PDC patient-derived soft tissue sarcoma cell line growth inhibition [GQUAD]
Details: for IC50: curve of first compound; for viability, T/C: stronger effect = lower value
Summary of the method: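 Multi-cell-type spheroids of tumor cells with HUVEC and mesenchymal stem cells, treated with drug combinations. Concentrations descend in half-log steps from near clinical Cmax, or from 10 microM where Cmax is unknown; viability read-out.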

[1] = second compound 0.0316 µM, first compound 0.000999 µM
[2] = second compound 0.0316 µM, first compound 0.00316 µM
[3] = second compound 0.0316 µM, first compound 0.00999 µM
[4] = second compound 0.0316 µM, first compound 0.0316 µM
[5] = second compound 0.0316 µM, first compound 0.0999 µM
[6] = second compound 0.0316 µM, first compound 0.316 µM
[7] = second compound 0.1 µM, first compound 0.000999 µM
[8] = second compound 0.1 µM, first compound 0.00316 µM
[9] = second compound 0.1 µM, first compound 0.00999 µM
[10] = second compound 0.1 µM, first compound 0.0316 µM
[11] = second compound 0.1 µM, first compound 0.0999 µM
[12] = second compound 0.1 µM, first compound 0.316 µM
[13] = second compound 0.316 µM, first compound 0.000999 µM
[14] = second compound 0.316 µM, first compound 0.00316 µM
[15] = second compound 0.316 µM, first compound 0.00999 µM
[16] = second compound 0.316 µM, first compound 0.0316 µM
[17] = second compound 0.316 µM, first compound 0.0999 µM
[18] = second compound 0.316 µM, first compound 0.316 µM
[19] = second compound 1 µM, first compound 0.000999 µM
[20] = second compound 1 µM, first compound 0.00316 µM
[21] = second compound 1 µM, first compound 0.00999 µM
[22] = second compound 1 µM, first compound 0.0316 µM
[23] = second compound 1 µM, first compound 0.0999 µM
[24] = second compound 1 µM, first compound 0.316 µM
[25] = second compound 3.16 µM, first compound 0.000999 µM
[26] = second compound 3.16 µM, first compound 0.00316 µM
[27] = second compound 3.16 µM, first compound 0.00999 µM
[28] = second compound 3.16 µM, first compound 0.0316 µM
[29] = second compound 3.16 µM, first compound 0.0999 µM
[30] = second compound 3.16 µM, first compound 0.316 µM
[31] = second compound 10 µM, first compound 0.000999 µM
[32] = second compound 10 µM, first compound 0.00316 µM
[33] = second compound 10 µM, first compound 0.00999 µM
[34] = second compound 10 µM, first compound 0.0316 µM
[35] = second compound 10 µM, first compound 0.0999 µM
[36] = second compound 10 µM, first compound 0.316 µM
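Further: spheroids exposed to drugs for 7 days before viability reading.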
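Wherever viability, T/C is given: 100% = DMSO vehicle control viability.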

IC50 (second compound 0.0316 µM): > 0.316 µM
IC50 (second compound 0.1 µM): > 0.316 µM
IC50 (second compound 0.316 µM): > 0.316 µM
IC50 (second compound 1 µM): > 0.316 µM
IC50 (second compound 3.16 µM): > 0.316 µM
IC50 (second compound 10 µM): < 0.000999 µM
SMILES: CC[C@@]1(O)C(=O)OCc2c1cc1n(c2=O)Cc2cc3c(CN(C)C)c(O)ccc3nc2-1 + Cc1cnc(CNC(=O)c2c(=O)c3ccc(N4CCCN(C)CC4)nc3n3c2sc2ccccc23)cn1
viability, T/C [1]: 107%
viability, T/C [2]: 102%
viability, T/C [3]: 78.7%
viability, T/C [4]: 66.5%
viability, T/C [5]: 60.1%
viability, T/C [6]: 60.1%
viability, T/C [7]: 88.9%
viability, T/C [8]: 85%
viability, T/C [9]: 76.5%
viability, T/C [10]: 69.3%
viability, T/C [11]: 57.2%
viability, T/C [12]: 50.9%
viability, T/C [13]: 90.1%
viability, T/C [14]: 86.7%
viability, T/C [15]: 78.3%
viability, T/C [16]: 63%
viability, T/C [17]: 67.1%
viability, T/C [18]: 65.7%
viability, T/C [19]: 70.8%
viability, T/C [20]: 60.2%
viability, T/C [21]: 60.4%
viability, T/C [22]: 63.2%
viability, T/C [23]: 59.3%
viability, T/C [24]: 55.8%
viability, T/C [25]: 54.3%
viability, T/C [26]: 60.7%
viability, T/C [27]: 51.5%
viability, T/C [28]: 54.4%
viability, T/C [29]: 58%
viability, T/C [30]: 56.2%
viability, T/C [31]: 46.5%
viability, T/C [32]: 47.1%
viability, T/C [33]: 49.7%
viability, T/C [34]: 43.7%
viability, T/C [35]: 49.4%
viability, T/C [36]: 49%

IC50 (second compound 0.0316 µM): 0.00862 µM
IC50 (second compound 0.1 µM): 0.00815 µM
IC50 (second compound 0.316 µM): 0.00924 µM
IC50 (second compound 1 µM): 0.0132 µM
IC50 (second compound 3.16 µM): 0.00643 µM
IC50 (second compound 10 µM): < 0.000999 µM
SMILES: CCc1c2c(nc3ccc(O)cc13)-c1cc3c(c(=O)n1C2)COC(=O)[C@]3(O)CC + Cc1cnc(CNC(=O)c2c(=O)c3ccc(N4CCCN(C)CC4)nc3n3c2sc2ccccc23)cn1
viability, T/C [1]: 57.6%
viability, T/C [2]: 59.2%
viability, T/C [3]: 44.3%
viability, T/C [4]: 40%
viability, T/C [5]: 17.4%
viability, T/C [6]: 7.92%
viability, T/C [7]: 58.6%
viability, T/C [8]: 56.8%
viability, T/C [9]: 49.3%
viability, T/C [10]: 34.1%
viability, T/C [11]: 21.3%
viability, T/C [12]: 8.98%
viability, T/C [13]: 71.6%
viability, T/C [14]: 55.4%
viability, T/C [15]: 49.9%
viability, T/C [16]: 40.5%
viability, T/C [17]: 21.2%
viability, T/C [18]: 7.27%
viability, T/C [19]: 63.8%
viability, T/C [20]: 61.7%
viability, T/C [21]: 52.6%
viability, T/C [22]: 40.1%
viability, T/C [23]: 24.1%
viability, T/C [24]: 6.45%
viability, T/C [25]: 55.8%
viability, T/C [26]: 55%
viability, T/C [27]: 47.6%
viability, T/C [28]: 37.3%
viability, T/C [29]: 23.2%
viability, T/C [30]: 0.26%
viability, T/C [31]: 47.2%
viability, T/C [32]: 37.1%
viability, T/C [33]: 39.6%
viability, T/C [34]: 32.5%
viability, T/C [35]: 4.57%
viability, T/C [36]: 0.24%

IC50 (second compound 0.0316 µM): 2.67 µM
IC50 (second compound 0.1 µM): > 10 µM
IC50 (second compound 0.316 µM): 2.8 µM
IC50 (second compound 1 µM): 1.65 µM
IC50 (second compound 3.16 µM): 1.77 µM
IC50 (second compound 10 µM): < 0.0316 µM
SMILES: COc1cc(C2c3cc4c(cc3C(OC3OC5COC(C)OC5C(O)C3O)C3COC(=O)C23)OCO4)cc(OC)c1O (stereo unspecified) + Cc1cnc(CNC(=O)c2c(=O)c3ccc(N4CCCN(C)CC4)nc3n3c2sc2ccccc23)cn1
viability, T/C [4]: 99.8%
viability, T/C (second compound 0.0316 µM, first compound 0.1 µM): 83.6%
viability, T/C [6]: 77.8%
viability, T/C (second compound 0.0316 µM, first compound 1 µM): 53.8%
viability, T/C (second compound 0.0316 µM, first compound 3.16 µM): 50.7%
viability, T/C (second compound 0.0316 µM, first compound 10 µM): 42.4%
viability, T/C [10]: 91.8%
viability, T/C (second compound 0.1 µM, first compound 0.1 µM): 92%
viability, T/C [12]: 75.8%
viability, T/C (second compound 0.1 µM, first compound 1 µM): 52%
viability, T/C (second compound 0.1 µM, first compound 3.16 µM): 56.6%
viability, T/C (second compound 0.1 µM, first compound 10 µM): 45.5%
viability, T/C [16]: 76.6%
viability, T/C (second compound 0.316 µM, first compound 0.1 µM): 73.3%
viability, T/C [18]: 81.6%
viability, T/C (second compound 0.316 µM, first compound 1 µM): 58%
viability, T/C (second compound 0.316 µM, first compound 3.16 µM): 50.3%
viability, T/C (second compound 0.316 µM, first compound 10 µM): 47.8%
viability, T/C [22]: 65.9%
viability, T/C (second compound 1 µM, first compound 0.1 µM): 57.5%
viability, T/C [24]: 55.5%
viability, T/C (second compound 1 µM, first compound 1 µM): 52.2%
viability, T/C (second compound 1 µM, first compound 3.16 µM): 51.1%
viability, T/C (second compound 1 µM, first compound 10 µM): 38.1%
viability, T/C [28]: 56.3%
viability, T/C (second compound 3.16 µM, first compound 0.1 µM): 52.1%
viability, T/C [30]: 55%
viability, T/C (second compound 3.16 µM, first compound 1 µM): 46.6%
viability, T/C (second compound 3.16 µM, first compound 3.16 µM): 50.4%
viability, T/C (second compound 3.16 µM, first compound 10 µM): 33.1%
viability, T/C [34]: 48.8%
viability, T/C (second compound 10 µM, first compound 0.1 µM): 37.6%
viability, T/C [36]: 47.1%
viability, T/C (second compound 10 µM, first compound 1 µM): 40.7%
viability, T/C (second compound 10 µM, first compound 3.16 µM): 43.5%
viability, T/C (second compound 10 µM, first compound 10 µM): 19.4%

Source: PubChem BioAssay AID2060500 (Molecular Pharmacology Branch, DTP, NCI, 2025)
